Source: publication PMC7456637, “Pharmacokinetic characterization of fluorocoxib D, a cyclooxygenase-2-targeted optical imaging agent for detection of cancer” (Journal of Biomedical Optics, 2020)
Where “and” joins values, the source holds several entries; their conditions need not be identical. Identical values can stand only once.

Assay: Pilot safety study: complete urinalysis
Format: in vivo, dog
Procedure: The animal studies were performed in the accordance with the University of Tennessee Institutional Animal Care and Use Committee (UT IACUC)-approved protocols and in an accordance with NIH guidelines. Individually housed research healthy female beagle dogs (Covance Research Product) with weights of 6.7 to 10.3 kg were used to assess the safety and pharmacokinetic parameters of fluorocoxib D administrated a dose of 1 mg/kg over 20 min intravenously (i.v.).
For single dose safety evaluation studies, we administrated fluorocoxib D at 1 mg/kg , i.v. using a preplaced cephalic or saphenous vein catheter over 20 min to six healthy research dogs following protocol as described previously.[38] Briefly, physical examinations for signs of potential drug toxicity were performed before, during, and daily for 3 days after fluorocoxib D administration. Physical assessment included auscultation of heart and lungs, abdominal palpation, body temperature, appetite, attitude, activity levels monitoring, and other health-related events. Hypersensitivity was evaluated by direct observation of each dog during treatment for clinical signs of an allergic reaction (facial swelling, flushing, urticaria, dyspnea, scratching, and changes of heart rates). […] Laboratory evaluations of blood and urine were carried out before and 3 days after fluorocoxib D administration to monitor signs of toxicity. Blood (up to 3 ml) was collected into ethylenediaminetetraacetic acid (EDTA) and heparin-treated tubes, and urine (up to 5 ml) was collected by cystocentesis or from the floor of the runs. The laboratory evaluation consisted of a complete blood count (CBC), serum chemistry profile, and complete urinalysis. The CBC evaluated total white blood cells (WBC) and hematocrit (HCT), in addition to absolute numbers of neutrophils, lymphocytes, monocytes, eosinophils, and platelets. The plasma chemistry profile evaluated blood urea nitrogen (BUN), creatinine, proteins (albumin, globulins, and total proteins), alanine aminotransferase (ALT), total bilirubin, glucose, and electrolytes. The complete urinalysis evaluated urine proteins, glucose, and ketones; a sediment examination and urine-specific gravity were validated as well for any possible signs of renal toxicity of fluorocoxib D. All laboratory tests were carried out at the Veterinary Medical Center of the University of Tennessee in Knoxville.

[1] = 3 days after single dose 1 mg/kg i.v., individual dogs, reference NEG, 1 mg/kg

COc1ccc2c(c1)c(CC(=O)NCCCCNC(=O)c1ccc(C3=c4cc5c6c(c4Oc4c3cc3c7c4CCCN7CCC3)CCC[N+]=6CCC5)cc1)c(C)n2C(=O)c1ccc(Cl)cc1 [Fluorocoxib D, N -[(rhodamin-X-yl)but-4-yl]-2-[1-(4-chlorobenzoyl)-5-methoxy-2-methyl-1H-indol-3-yl]acetamide]
SP. GRAV (urine-specific gravity), After (3 days after single dose 1 mg/kg i.v., individual dogs, 1 mg/kg): 1.03 and 1.039 (2×) and 1.032 and 1.044
GLU-COSE (urine), After (3 days after single dose 1 mg/kg i.v., individual dogs, reference NEG): NEG
PRO-TEIN (urine), After (3 days after single dose 1 mg/kg i.v., individual dogs, reference NEG-1+, 1 mg/kg): NEG (3×) and TRACE
BLD/Hb (urine blood/hemoglobin), After [1]: NEG (2×) and TRACE (2×)
KETO-NES (urine), After [1]: NEG (3×) and TRACE (2×)
PH (urine pH), After (3 days after single dose 1 mg/kg i.v., individual dogs, reference range 5 to 9, 1 mg/kg): >9 H and 6 (3×) and 5.5
Urine bacteria finding 3 days after administration (two dogs (#4 and #6), no pyuria, not thought relevant to toxicity): bacteriuria
